The results in this text go back to patent publication US8394362B2, “Gem difluorinated C-glycopeptides, their preparation and their use for the preservation of biological materials and/or in cryosugery” (priority 2004, dated 2013).

The subject of the assay is H9c2(2-1) cells. Format: cell-based, rat. As to the method:
The test was conducted on rat heart myoblasts to consider application of these compounds for the preservation of organs such as the heart for subsequent transplant.
Another test was conducted on myoblasts at temperatures of 3° C. and −3° C. The purpose of the experiment this time was to increase the concentrations of glycoproteins 15 and 30 equimolar fashion (the molecular weight of the dimer being 2× greater than that of the monomer). The increase in concentration was 2.5 mg/mL for monomer 15 and 5 mg/mL for dimer 30. The temperatures were chosen over a range frequently used for the preservation of cells and tissues. The idea being subsequently to continue this experiment directly on tissues.

On to `C[C@H](NC(=O)[C@H](C)NC(=O)[C@@H](N)CCCCNC(=O)C(F)(F)C1(O)O[C@H](CO)[C@H](O)[C@H](O)[C@H]1O)C(=O)O` (stereo partly shown) [product 15], for which the “survival rate relative to control (control 19%)” value (3° C. (FIG. 42 as printed), after 8 hours, monomer […], dimer 5 mg/mL) was “more than twice as high”. Further, under “after 16 hours, FIGS. 41 and 42, monomer […], dimer 5 mg/mL”, the cells preserved entry is given as “approximately 90%”. The molecule also showed a myoblasts still living (after 24 hours, FIGS. 41 and 42, monomer […], dimer 5 mg/mL) of around 65%. Under “−3° C. (FIG. 43), 1 mg/mL versus 2.5 / 5 mg/mL”, the efficacy versus concentration entry was “greater efficacy at higher concentrations”.
